In ChEMBL document CHEMBL3885861, “Open TG-GATES”:

Organism: Rattus norvegicus
Test: Open TG-GATES - Regimen: Single
Type: toxicity, organism-based, Sprague-Dawley
Set-up: regimen Single, gender Male, age 6 weeks
Conditions: in vivo, po, route gavage; for APTT / Bas / Eos / Fbg / Hb / Ht / Lym / MCH / MCHC / MCV / Mono / Neu / PT / RBC / Ret / WBC / Plat: tissue Blood; for KIDNEY_L / KIDNEY_R / KIDNEY_TOTAL: tissue Kidney; for ALP / ALT / AST / BUN / CRE / Ca / DBIL / GLC / K / LDH / Na / PL / RALB / TBIL / TC / TG / TP / gamma-GTP / IP: tissue Plasma; for LIVER: tissue Liver
[1] = 50 mg/kg, 3 h, dose level Middle

Structure (SMILES): Oc1ncnc2[nH]ncc12 [ALLOPURINOL]
- APTT (15 mg/kg, 3 h, dose level Low): 16.3 s
- Bas (15 mg/kg, 3 h, dose level Low): 0%
- Eos (15 mg/kg, 3 h, dose level Low): 1%
- Fbg (15 mg/kg, 3 h, dose level Low): 209.6 mg/dL
- Hb (15 mg/kg, 3 h, dose level Low): 13.9 g/dL
- Ht (15 mg/kg, 3 h, dose level Low): 41.2%
- Lym (15 mg/kg, 3 h, dose level Low): 80.4%
- MCH (15 mg/kg, 3 h, dose level Low): 22 pg
- MCHC (15 mg/kg, 3 h, dose level Low): 33.8%
- MCV (15 mg/kg, 3 h, dose level Low): 65 fL
- Mono (15 mg/kg, 3 h, dose level Low): 7.4%
- Neu (15 mg/kg, 3 h, dose level Low): 11.2%
- PT (15 mg/kg, 3 h, dose level Low): 12.5 s
- RBC (15 mg/kg, 3 h, dose level Low): 636 x10_4/ul
- Ret (15 mg/kg, 3 h, dose level Low): 8.4%
- WBC (15 mg/kg, 3 h, dose level Low): 99.2 x10_2/uL
- KIDNEY_L (15 mg/kg, 3 h, dose level Low): 1 g
- KIDNEY_R (15 mg/kg, 3 h, dose level Low): 1 g
- KIDNEY_TOTAL (15 mg/kg, 3 h, dose level Low): 2 g
- ALP (15 mg/kg, 3 h, dose level Low): 884.4 IU/L
- ALT (15 mg/kg, 3 h, dose level Low): 35.4 IU/L
- AST (15 mg/kg, 3 h, dose level Low): 64.4 IU/L
- BUN (15 mg/kg, 3 h, dose level Low): 12.4 mg/dL
- CRE (15 mg/kg, 3 h, dose level Low): 0.5 mg/dL
- Ca (15 mg/kg, 3 h, dose level Low): 11.3 mg/dL
- DBIL (15 mg/kg, 3 h, dose level Low): 0.086 mg/dL
- GLC (15 mg/kg, 3 h, dose level Low): 183.8 mg/dL
- K (15 mg/kg, 3 h, dose level Low): 4.9 meq/L
- LDH (15 mg/kg, 3 h, dose level Low): 115.4 IU/L
- Na (15 mg/kg, 3 h, dose level Low): 139.2 meq/L
- PL (15 mg/kg, 3 h, dose level Low): 132.8 mg/dL
- RALB (15 mg/kg, 3 h, dose level Low): 3.7 g/dL
- TBIL (15 mg/kg, 3 h, dose level Low): 0.4 mg/dL
- TC (15 mg/kg, 3 h, dose level Low): 73.4 mg/dL
- TG (15 mg/kg, 3 h, dose level Low): 54.6 mg/dL
- TP (15 mg/kg, 3 h, dose level Low): 5.5 g/dL
- gamma-GTP (15 mg/kg, 3 h, dose level Low): 1.6 IU/L
- TERMINAL_BW (15 mg/kg, 6 h, dose level Low): 209.5 g
- APTT (15 mg/kg, 6 h, dose level Low): 16.8 s
- Bas (15 mg/kg, 6 h, dose level Low): 0%
- Eos (15 mg/kg, 6 h, dose level Low): 0.4%
- Fbg (15 mg/kg, 6 h, dose level Low): 206.8 mg/dL
- Hb (15 mg/kg, 6 h, dose level Low): 13.6 g/dL
- Ht (15 mg/kg, 6 h, dose level Low): 40.5%
- Lym (15 mg/kg, 6 h, dose level Low): 79%
- MCH (15 mg/kg, 6 h, dose level Low): 21.8 pg
- MCHC (15 mg/kg, 6 h, dose level Low): 33.5%
- MCV (15 mg/kg, 6 h, dose level Low): 65.3 fL
- Mono (15 mg/kg, 6 h, dose level Low): 6.2%
- Neu (15 mg/kg, 6 h, dose level Low): 14.2%
- PT (15 mg/kg, 6 h, dose level Low): 12.4 s
- Plat (15 mg/kg, 6 h, dose level Low): 109.1 x10_4/uL
- RBC (15 mg/kg, 6 h, dose level Low): 620.2 x10_4/ul
- Ret (15 mg/kg, 6 h, dose level Low): 8.1%
- WBC (15 mg/kg, 6 h, dose level Low): 101.3 x10_2/uL
- KIDNEY_L (15 mg/kg, 6 h, dose level Low): 1 g
- KIDNEY_R (15 mg/kg, 6 h, dose level Low): 1 g
- KIDNEY_TOTAL (15 mg/kg, 6 h, dose level Low): 2 g
- LIVER (15 mg/kg, 6 h, dose level Low): 9.6 g
- ALP (15 mg/kg, 6 h, dose level Low): 695 IU/L
- ALT (15 mg/kg, 6 h, dose level Low): 30 IU/L
- AST (15 mg/kg, 6 h, dose level Low): 58 IU/L
- BUN (15 mg/kg, 6 h, dose level Low): 11 mg/dL
- CRE (15 mg/kg, 6 h, dose level Low): 0.5 mg/dL
- Ca (15 mg/kg, 6 h, dose level Low): 11.4 mg/dL
- DBIL (15 mg/kg, 6 h, dose level Low): 0.024 mg/dL
- GLC (15 mg/kg, 6 h, dose level Low): 187 mg/dL
- IP (15 mg/kg, 6 h, dose level Low): 10.1 mg/dL
- K (15 mg/kg, 6 h, dose level Low): 4.8 meq/L
- LDH (15 mg/kg, 6 h, dose level Low): 74.8 IU/L
- Na (15 mg/kg, 6 h, dose level Low): 138.4 meq/L
- PL (15 mg/kg, 6 h, dose level Low): 126.6 mg/dL
- RALB (15 mg/kg, 6 h, dose level Low): 3.7 g/dL
- TBIL (15 mg/kg, 6 h, dose level Low): 0.3 mg/dL
- TC (15 mg/kg, 6 h, dose level Low): 67.6 mg/dL
- TG (15 mg/kg, 6 h, dose level Low): 60.8 mg/dL
- TP (15 mg/kg, 6 h, dose level Low): 5.5 g/dL
- gamma-GTP (15 mg/kg, 6 h, dose level Low): 1 IU/L
- TERMINAL_BW (15 mg/kg, 9 h, dose level Low): 204 g
- APTT (15 mg/kg, 9 h, dose level Low): 16.6 s
- Bas (15 mg/kg, 9 h, dose level Low): 0%
- Eos (15 mg/kg, 9 h, dose level Low): 1.2%
- Fbg (15 mg/kg, 9 h, dose level Low): 221.6 mg/dL
- Hb (15 mg/kg, 9 h, dose level Low): 13.6 g/dL
- Ht (15 mg/kg, 9 h, dose level Low): 40.7%
- Lym (15 mg/kg, 9 h, dose level Low): 66.4%
- MCH (15 mg/kg, 9 h, dose level Low): 21.7 pg
- MCHC (15 mg/kg, 9 h, dose level Low): 33.4%
- MCV (15 mg/kg, 9 h, dose level Low): 65 fL
- Mono (15 mg/kg, 9 h, dose level Low): 11.8%
- Neu (15 mg/kg, 9 h, dose level Low): 20.4%
- PT (15 mg/kg, 9 h, dose level Low): 12.3 s
- RBC (15 mg/kg, 9 h, dose level Low): 626.6 x10_4/ul
- Ret (15 mg/kg, 9 h, dose level Low): 7.9%
- WBC (15 mg/kg, 9 h, dose level Low): 92.7 x10_2/uL
- KIDNEY_L (15 mg/kg, 9 h, dose level Low): 1 g
- KIDNEY_R (15 mg/kg, 9 h, dose level Low): 1 g
- KIDNEY_TOTAL (15 mg/kg, 9 h, dose level Low): 1.9 g
- LIVER (15 mg/kg, 9 h, dose level Low): 9.1 g
- ALP (15 mg/kg, 9 h, dose level Low): 837 IU/L
- ALT (15 mg/kg, 9 h, dose level Low): 27.6 IU/L
- AST (15 mg/kg, 9 h, dose level Low): 58.8 IU/L
- BUN (15 mg/kg, 9 h, dose level Low): 13 mg/dL
- CRE (15 mg/kg, 9 h, dose level Low): 0.4 mg/dL
- DBIL (15 mg/kg, 9 h, dose level Low): 0.042 mg/dL
- GLC (15 mg/kg, 9 h, dose level Low): 198.8 mg/dL
- K (15 mg/kg, 9 h, dose level Low): 4.8 meq/L
- LDH (15 mg/kg, 9 h, dose level Low): 74.6 IU/L
- Na (15 mg/kg, 9 h, dose level Low): 138.6 meq/L
- PL (15 mg/kg, 9 h, dose level Low): 129.8 mg/dL
- RALB (15 mg/kg, 9 h, dose level Low): 3.8 g/dL
- TBIL (15 mg/kg, 9 h, dose level Low): 0.3 mg/dL
- TC (15 mg/kg, 9 h, dose level Low): 69.2 mg/dL
- TG (15 mg/kg, 9 h, dose level Low): 53.2 mg/dL
- TP (15 mg/kg, 9 h, dose level Low): 5.7 g/dL
- gamma-GTP (15 mg/kg, 9 h, dose level Low): 1.4 IU/L
- TERMINAL_BW (15 mg/kg, 24 h, dose level Low): 224.8 g
- APTT (15 mg/kg, 24 h, dose level Low): 16.1 s
- Bas (15 mg/kg, 24 h, dose level Low): 0%
- Eos (15 mg/kg, 24 h, dose level Low): 1.2%
- Fbg (15 mg/kg, 24 h, dose level Low): 213.8 mg/dL
- Hb (15 mg/kg, 24 h, dose level Low): 13.6 g/dL
- Ht (15 mg/kg, 24 h, dose level Low): 40.8%
- Lym (15 mg/kg, 24 h, dose level Low): 79.4%
- MCH (15 mg/kg, 24 h, dose level Low): 21.8 pg
- MCHC (15 mg/kg, 24 h, dose level Low): 33.3%
- MCV (15 mg/kg, 24 h, dose level Low): 65.4 fL
- Mono (15 mg/kg, 24 h, dose level Low): 7.2%
- Neu (15 mg/kg, 24 h, dose level Low): 12.4%
- PT (15 mg/kg, 24 h, dose level Low): 12.2 s
- Plat (15 mg/kg, 24 h, dose level Low): 113.4 x10_4/uL
- RBC (15 mg/kg, 24 h, dose level Low): 623 x10_4/ul
- Ret (15 mg/kg, 24 h, dose level Low): 7.9%
- WBC (15 mg/kg, 24 h, dose level Low): 93.3 x10_2/uL
- KIDNEY_L (15 mg/kg, 24 h, dose level Low): 1 g
- KIDNEY_R (15 mg/kg, 24 h, dose level Low): 1 g
- KIDNEY_TOTAL (15 mg/kg, 24 h, dose level Low): 2 g
- ALP (15 mg/kg, 24 h, dose level Low): 884.8 IU/L
- ALT (15 mg/kg, 24 h, dose level Low): 33.2 IU/L
- AST (15 mg/kg, 24 h, dose level Low): 61.6 IU/L
- BUN (15 mg/kg, 24 h, dose level Low): 17.8 mg/dL
- CRE (15 mg/kg, 24 h, dose level Low): 0.5 mg/dL
- DBIL (15 mg/kg, 24 h, dose level Low): 0.024 mg/dL
- GLC (15 mg/kg, 24 h, dose level Low): 187.4 mg/dL
- IP (15 mg/kg, 24 h, dose level Low): 8 mg/dL
- K (15 mg/kg, 24 h, dose level Low): 5 meq/L
- LDH (15 mg/kg, 24 h, dose level Low): 85.2 IU/L
- Na (15 mg/kg, 24 h, dose level Low): 138.8 meq/L
- PL (15 mg/kg, 24 h, dose level Low): 149.8 mg/dL
- RALB (15 mg/kg, 24 h, dose level Low): 3.6 g/dL
- TBIL (15 mg/kg, 24 h, dose level Low): 0.3 mg/dL
- TC (15 mg/kg, 24 h, dose level Low): 78 mg/dL
- TG (15 mg/kg, 24 h, dose level Low): 91.4 mg/dL
- TP (15 mg/kg, 24 h, dose level Low): 5.7 g/dL
- gamma-GTP (15 mg/kg, 24 h, dose level Low): 1.8 IU/L
- TERMINAL_BW [1]: 210.9 g
- APTT [1]: 16.6 s
- Bas [1]: 0%
